{"source": "patent US8058295B2", "about": "“Cystic fibrosis transmembrane conductance regulator protein inhibitors and uses thereof” (The Regents of the University of California, priority 2002, dated 2011)", "key": {"[1]": {"assay": "Tissue distribution and elimination in mice after intravenous bolus", "type": "in vivo", "description": "(§1) A bolus of ^14C-CFTRinh-172 (2 μCi) was administered intravenously over 1 min in mice (male CD1 mice, 30-35 grams) by tail vein. Mice were sacrificed at 5, 30, 120 and 240 min. Organs were removed, weighed and homogenized in distilled water (10-50 vol %). Radioactivity was determined by scintillation counting of the homogenates (25-50 μL) and expressed as total ^14C-radioactivity per organ (or per gram tissue for skeletal muscle). At the same time blood, urine and bile (from gallbladder or duodenum) were collected and ^14C-radioactivity was measured and expressed per mL of fluid. Elimination studies were done by collections of urine and stool over the first 24 hr after ^14C-CFTRinh-172 administration. Tissue distribution studies were also done on rats prepared as for pharmacokinetic studies."}, "[2]": {"assay": "Tissue distribution in rats after intravenous bolus", "type": "in vivo", "settings": "60 min after i.v. bolus", "description": "as §1"}, "[3]": {"biological_target": "T1, ATP-sensitive K^+ channels (Rattus norvegicus, UniProt Q09429)", "T1 construct": "endogenous in cells; host or cells: INS-1 rat pancreatic β cell line", "T1 sequence (Q09429 whole entry)": "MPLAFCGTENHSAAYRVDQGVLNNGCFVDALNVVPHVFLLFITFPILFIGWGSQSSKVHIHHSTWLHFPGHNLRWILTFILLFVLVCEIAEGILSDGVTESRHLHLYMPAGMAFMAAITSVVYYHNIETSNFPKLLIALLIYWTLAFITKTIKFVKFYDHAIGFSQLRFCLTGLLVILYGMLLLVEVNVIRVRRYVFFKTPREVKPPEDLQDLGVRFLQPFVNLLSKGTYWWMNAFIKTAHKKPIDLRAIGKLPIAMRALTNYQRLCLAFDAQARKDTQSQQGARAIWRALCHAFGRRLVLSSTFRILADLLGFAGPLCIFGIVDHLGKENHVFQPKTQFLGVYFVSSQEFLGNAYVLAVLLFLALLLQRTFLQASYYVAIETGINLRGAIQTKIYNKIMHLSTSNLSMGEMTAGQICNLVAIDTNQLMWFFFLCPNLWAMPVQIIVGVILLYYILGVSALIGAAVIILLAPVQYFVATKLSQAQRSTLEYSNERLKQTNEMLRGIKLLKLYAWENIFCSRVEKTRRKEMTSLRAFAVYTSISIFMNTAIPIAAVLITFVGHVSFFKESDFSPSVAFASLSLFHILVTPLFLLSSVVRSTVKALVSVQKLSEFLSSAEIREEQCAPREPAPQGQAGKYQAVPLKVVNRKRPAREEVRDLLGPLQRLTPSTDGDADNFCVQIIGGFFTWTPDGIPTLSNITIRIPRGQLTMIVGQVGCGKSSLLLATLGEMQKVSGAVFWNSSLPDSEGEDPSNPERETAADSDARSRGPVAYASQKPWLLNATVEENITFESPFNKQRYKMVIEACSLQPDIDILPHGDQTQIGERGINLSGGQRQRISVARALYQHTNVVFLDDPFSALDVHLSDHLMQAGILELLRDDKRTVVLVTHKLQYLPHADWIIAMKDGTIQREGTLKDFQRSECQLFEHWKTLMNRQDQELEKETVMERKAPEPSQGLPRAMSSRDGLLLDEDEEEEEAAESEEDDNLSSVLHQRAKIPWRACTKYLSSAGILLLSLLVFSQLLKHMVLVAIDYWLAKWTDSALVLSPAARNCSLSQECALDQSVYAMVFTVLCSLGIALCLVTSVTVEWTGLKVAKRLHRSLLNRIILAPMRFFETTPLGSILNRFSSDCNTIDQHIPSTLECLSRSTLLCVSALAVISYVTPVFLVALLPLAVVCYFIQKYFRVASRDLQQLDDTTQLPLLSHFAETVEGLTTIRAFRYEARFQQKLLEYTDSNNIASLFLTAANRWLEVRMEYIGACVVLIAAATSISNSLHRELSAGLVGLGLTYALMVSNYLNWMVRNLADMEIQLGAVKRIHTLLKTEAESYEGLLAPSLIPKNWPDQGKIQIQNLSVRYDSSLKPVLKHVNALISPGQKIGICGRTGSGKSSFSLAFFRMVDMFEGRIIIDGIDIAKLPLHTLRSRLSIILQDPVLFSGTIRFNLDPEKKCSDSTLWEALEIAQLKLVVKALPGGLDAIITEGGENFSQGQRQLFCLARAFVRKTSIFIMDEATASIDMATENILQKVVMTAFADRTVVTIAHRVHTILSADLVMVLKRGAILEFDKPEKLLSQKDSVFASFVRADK", "T1 sequence (P70673 whole entry partner)": "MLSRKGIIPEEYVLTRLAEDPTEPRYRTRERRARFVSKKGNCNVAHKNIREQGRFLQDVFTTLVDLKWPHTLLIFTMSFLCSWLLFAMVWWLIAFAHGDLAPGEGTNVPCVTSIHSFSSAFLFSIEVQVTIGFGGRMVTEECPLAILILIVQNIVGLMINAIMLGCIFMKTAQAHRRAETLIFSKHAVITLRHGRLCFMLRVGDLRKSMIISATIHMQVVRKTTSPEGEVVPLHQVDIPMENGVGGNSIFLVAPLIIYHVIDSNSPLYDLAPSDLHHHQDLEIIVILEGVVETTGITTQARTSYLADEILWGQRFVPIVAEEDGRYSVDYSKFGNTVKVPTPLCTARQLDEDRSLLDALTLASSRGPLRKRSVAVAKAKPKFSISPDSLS", "assay": "Membrane potential recording in INS-1 pancreatic β cells (K-ATP channels)", "type": "cell-based"}, "[4]": {"system": "cholera toxin-induced intestinal fluid secretion", "design": "species or system mice", "settings": "mouse, in vivo, po"}, "CFTR Cl^− channel": {"biological_target": "T2, CFTR Cl^− channel (Rattus norvegicus, UniProt P34158)", "T2 construct": "from tissue; host or cells: rat colon mucosa", "T2 sequence (P34158 whole entry)": "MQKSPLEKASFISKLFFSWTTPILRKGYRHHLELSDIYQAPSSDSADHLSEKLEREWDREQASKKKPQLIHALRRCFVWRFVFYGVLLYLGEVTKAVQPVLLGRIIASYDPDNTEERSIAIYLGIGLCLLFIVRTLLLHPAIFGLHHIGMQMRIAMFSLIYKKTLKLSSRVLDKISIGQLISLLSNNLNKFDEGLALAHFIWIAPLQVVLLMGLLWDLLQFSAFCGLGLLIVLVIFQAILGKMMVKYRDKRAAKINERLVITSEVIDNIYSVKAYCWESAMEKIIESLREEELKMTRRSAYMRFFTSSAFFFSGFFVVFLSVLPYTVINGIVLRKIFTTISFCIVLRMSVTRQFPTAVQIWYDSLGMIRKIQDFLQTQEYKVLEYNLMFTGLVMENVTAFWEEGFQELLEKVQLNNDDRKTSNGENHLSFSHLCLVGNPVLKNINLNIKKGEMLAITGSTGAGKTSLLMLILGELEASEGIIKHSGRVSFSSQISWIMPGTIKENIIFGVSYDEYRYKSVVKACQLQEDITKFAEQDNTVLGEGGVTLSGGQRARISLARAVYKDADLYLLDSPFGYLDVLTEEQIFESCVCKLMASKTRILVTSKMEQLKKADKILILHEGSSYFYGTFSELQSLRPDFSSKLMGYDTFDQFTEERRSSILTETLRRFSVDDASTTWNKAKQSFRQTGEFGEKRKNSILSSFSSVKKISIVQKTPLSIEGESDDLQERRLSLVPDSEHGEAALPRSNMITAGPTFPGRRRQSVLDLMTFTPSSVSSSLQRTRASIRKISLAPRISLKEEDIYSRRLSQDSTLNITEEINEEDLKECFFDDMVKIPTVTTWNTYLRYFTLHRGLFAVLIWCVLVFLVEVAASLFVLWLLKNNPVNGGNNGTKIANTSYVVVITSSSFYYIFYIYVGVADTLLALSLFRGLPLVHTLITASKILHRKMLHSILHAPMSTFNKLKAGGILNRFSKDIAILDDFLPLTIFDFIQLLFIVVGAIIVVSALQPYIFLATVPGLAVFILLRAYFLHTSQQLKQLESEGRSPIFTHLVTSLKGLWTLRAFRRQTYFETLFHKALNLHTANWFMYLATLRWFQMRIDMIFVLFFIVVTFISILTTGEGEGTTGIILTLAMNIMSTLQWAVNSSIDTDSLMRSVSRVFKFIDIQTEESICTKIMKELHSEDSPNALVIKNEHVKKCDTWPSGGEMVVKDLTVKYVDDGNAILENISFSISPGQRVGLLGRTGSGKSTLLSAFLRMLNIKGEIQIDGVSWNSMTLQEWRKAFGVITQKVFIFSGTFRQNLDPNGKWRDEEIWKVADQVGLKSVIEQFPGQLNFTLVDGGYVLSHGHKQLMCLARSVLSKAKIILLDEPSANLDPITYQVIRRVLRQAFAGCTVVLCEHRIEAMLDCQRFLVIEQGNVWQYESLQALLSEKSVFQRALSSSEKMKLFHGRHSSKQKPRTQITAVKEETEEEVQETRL", "assay": "Short-circuit current in isolated rat colonic mucosa", "settings": "5 μM to the mucosal solution alone, after amiloride and forskolin 20 μM"}, "[5]": {"biological_target": "T3, Cl^−/HCO3^− exchanger (AE1) (Homo sapiens, UniProt P02730)", "T3 sequence (P02730 1-911)": "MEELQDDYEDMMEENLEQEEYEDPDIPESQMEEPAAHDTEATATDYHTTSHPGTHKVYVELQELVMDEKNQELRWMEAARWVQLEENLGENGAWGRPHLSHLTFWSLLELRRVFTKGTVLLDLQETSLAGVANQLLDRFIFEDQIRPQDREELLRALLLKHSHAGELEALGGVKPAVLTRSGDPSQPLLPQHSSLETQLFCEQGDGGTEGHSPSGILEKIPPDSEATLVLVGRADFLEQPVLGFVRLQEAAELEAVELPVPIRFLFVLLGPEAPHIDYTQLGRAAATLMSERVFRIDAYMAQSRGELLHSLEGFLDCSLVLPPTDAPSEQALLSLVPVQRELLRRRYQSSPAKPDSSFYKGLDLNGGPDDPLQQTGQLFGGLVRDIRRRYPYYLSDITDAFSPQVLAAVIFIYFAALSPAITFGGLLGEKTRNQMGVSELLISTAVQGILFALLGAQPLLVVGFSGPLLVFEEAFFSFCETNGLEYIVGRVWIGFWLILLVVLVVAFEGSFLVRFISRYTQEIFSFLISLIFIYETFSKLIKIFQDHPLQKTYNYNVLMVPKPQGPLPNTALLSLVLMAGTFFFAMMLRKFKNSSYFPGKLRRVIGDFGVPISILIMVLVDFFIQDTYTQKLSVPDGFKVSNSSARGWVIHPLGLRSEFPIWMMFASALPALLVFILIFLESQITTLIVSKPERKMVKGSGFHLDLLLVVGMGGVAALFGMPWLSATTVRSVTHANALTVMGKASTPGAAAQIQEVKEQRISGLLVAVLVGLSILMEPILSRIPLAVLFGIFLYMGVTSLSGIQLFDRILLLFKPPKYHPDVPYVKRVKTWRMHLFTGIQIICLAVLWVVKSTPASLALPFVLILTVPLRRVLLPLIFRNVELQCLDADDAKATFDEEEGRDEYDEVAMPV", "assay": "Cl^−/HCO3^− exchanger block", "settings": "5 μM"}, "wildtype CFTR": {"biological_target": "wildtype CFTR (Homo sapiens, UniProt P13569)", "sequence (P13569 whole entry)": "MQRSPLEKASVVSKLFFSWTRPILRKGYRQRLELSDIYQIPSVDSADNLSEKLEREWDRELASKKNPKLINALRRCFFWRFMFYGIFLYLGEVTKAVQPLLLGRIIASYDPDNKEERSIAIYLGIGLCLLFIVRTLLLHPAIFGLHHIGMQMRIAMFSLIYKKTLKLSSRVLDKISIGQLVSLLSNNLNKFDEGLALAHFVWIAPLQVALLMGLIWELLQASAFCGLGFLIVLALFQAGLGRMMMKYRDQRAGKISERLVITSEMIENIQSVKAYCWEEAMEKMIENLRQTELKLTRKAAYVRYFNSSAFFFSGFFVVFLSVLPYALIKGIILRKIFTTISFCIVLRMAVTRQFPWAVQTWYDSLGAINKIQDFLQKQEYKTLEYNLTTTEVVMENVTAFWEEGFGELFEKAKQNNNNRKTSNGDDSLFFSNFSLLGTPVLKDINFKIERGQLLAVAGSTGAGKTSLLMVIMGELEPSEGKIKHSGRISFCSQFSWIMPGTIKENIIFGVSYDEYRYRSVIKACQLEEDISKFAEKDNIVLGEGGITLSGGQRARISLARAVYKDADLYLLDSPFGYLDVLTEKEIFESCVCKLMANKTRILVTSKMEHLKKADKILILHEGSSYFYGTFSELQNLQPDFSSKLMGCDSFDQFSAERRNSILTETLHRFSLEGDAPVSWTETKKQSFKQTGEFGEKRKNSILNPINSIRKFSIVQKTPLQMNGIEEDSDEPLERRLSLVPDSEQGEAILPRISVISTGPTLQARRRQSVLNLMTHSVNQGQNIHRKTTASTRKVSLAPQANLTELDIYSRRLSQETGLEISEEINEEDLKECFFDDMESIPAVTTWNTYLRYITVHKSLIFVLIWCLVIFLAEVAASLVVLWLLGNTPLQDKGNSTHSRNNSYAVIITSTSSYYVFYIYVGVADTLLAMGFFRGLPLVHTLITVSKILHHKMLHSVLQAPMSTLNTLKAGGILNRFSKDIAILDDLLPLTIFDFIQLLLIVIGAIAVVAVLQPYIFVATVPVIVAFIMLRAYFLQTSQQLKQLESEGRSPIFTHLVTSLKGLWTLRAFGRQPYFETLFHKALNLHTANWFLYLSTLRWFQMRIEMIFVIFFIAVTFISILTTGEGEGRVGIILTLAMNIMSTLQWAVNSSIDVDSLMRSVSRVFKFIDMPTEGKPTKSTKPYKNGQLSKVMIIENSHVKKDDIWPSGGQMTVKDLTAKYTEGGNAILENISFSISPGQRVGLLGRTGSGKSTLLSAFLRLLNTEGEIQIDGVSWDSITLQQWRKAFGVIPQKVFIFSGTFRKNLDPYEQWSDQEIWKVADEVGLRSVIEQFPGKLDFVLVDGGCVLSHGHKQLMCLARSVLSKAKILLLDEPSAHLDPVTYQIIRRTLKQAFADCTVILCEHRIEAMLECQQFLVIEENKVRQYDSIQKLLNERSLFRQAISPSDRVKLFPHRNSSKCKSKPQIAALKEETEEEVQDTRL", "assay": "YFP fluorescence assay of CFTR-mediated I^− transport in FRT cells", "type": "cell-based", "design": "expressed in transfected cells; host or cells: Fischer rat thyroid (FRT) cells"}, "[6]": {"system": "intestinal fluid absorption", "assay": "Fluid absorption in mouse closed intestinal loops", "type": "in vivo, mice", "settings": "20 μg intraperitoneal, measured at 30 min", "description": "FIG. 10 is a set of graphs providing the results of characterization of the mouse closed-intestinal loop model. Panel A (FIG. 10A): Intestinal loops were injected with 200 μL buffer and loop weight measured at indicated times (mean±SEM, 4 mice per time point). […] Inset (top) Chemical structure of CFTRinh-172. Panel B (FIG. 10B): Time course of cholera toxin-induced fluid secretion in mouse closed-loop model. […] Data for injected loops (1 μg cholera toxin/loop) as mean±SEM (4-6 mice).\nFirst, the kinetics of intestinal loop fluid absorption and secretion were determined to characterize the mouse model. To study absorption, loop fluid content was measured at specified times after injection of 200 μL of PBS into individual loops. […] To study secretion, intestinal loops were injected with cholera toxin (1 μg in 0.1 mL PBS)."}, "phosphatase activity": {"system": "phosphatase activity", "assay": "Phosphatase assay", "type": "cell-based", "settings": "5 μM"}, "urea transporter (UT-B)": {"biological_target": "T4, urea transporter (UT-B) (Homo sapiens, UniProt Q13336)", "T4 sequence (Q13336 1-389)": "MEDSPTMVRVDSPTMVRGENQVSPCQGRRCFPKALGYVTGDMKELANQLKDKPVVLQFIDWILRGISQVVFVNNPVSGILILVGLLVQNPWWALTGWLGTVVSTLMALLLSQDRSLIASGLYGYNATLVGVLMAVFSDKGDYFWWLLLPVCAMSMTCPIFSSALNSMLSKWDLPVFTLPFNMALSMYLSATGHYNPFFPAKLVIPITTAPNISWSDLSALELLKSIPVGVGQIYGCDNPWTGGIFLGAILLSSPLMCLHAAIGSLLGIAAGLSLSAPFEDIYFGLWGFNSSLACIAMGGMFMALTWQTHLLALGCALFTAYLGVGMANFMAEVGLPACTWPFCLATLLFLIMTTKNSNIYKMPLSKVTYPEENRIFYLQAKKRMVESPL", "assay": "Urea transporter block", "settings": "5 μM"}, "[7]": {"system": "Volume-sensitive Cl^− channels", "assay": "Volume-activated Cl^− current, whole-cell patch clamp in FRT cells", "type": "cell-based, rat", "settings": "5 μM; 250 mosM/kg hypotonic solution", "source_text": "FIG. 4B is a graphical representation of volume-activated Cl^− current (hypotonic 250 mosM/kg H2O) measured in whole-cell patch clamp experiments on FRT cells."}}}
{"smiles": "O=C(O)c1ccc(/C=C2\\SC(=S)N(c3cccc(C(F)(F)F)c3)C2=O)cc1", "note": "[CFTRinh-172, 3-[(3-trifluoromethyl)phenyl]-5-[(4-carboxyphenyl)methylene]-2-thioxo-4-thiazolidinone]", "values": [{"measurement": "ratio of ^14C radioactivity in urine-to-blood", "setting": "[1]; mice", "result": "5-7"}, {"measurement": "average urine radioactivity", "setting": "[1]; mice, first 2 hours after infusion", "result": "4.2±1.2×10^5 cpm/mL"}, {"measurement": "^14C radioactivity in brain, heart, skeletal muscle or testes", "setting": "[1]; mice, i.v. bolus", "result": "Little radioactivity"}, {"measurement": "organ distribution of ^14C radioactivity", "setting": "[1]; mice, later times (30-240 min)", "result": "accumulated in the intestine"}, {"measurement": "excreted radioactivity found in the urine", "setting": "[1]; mice, urine and stool over first 24 hr", "result": "93±3", "unit": "%"}, {"measurement": "organ distribution of ^14C radioactivity", "setting": "[1]; mice, within 5 min after i.v. infusion", "result": "primarily in liver and kidney"}, {"measurement": "concentration of ^14C radioactivity in bile vs. blood", "setting": "[1]; mouse, in vivo", "result": "~9", "unit": "fold"}, {"measurement": "accumulation in other vital organs including heart, lung, skeletal muscle and testes", "setting": "[1]; rodents", "result": "little CFTRinh-172 accumulation"}, {"measurement": "blood-brain barrier penetration", "setting": "[1]; rodents", "result": "did not significantly cross the blood-brain barrier"}, {"measurement": "organ distribution of ^14C radioactivity", "setting": "[2]", "result": "little radioactivity in brain, heart and skeletal muscle"}, {"measurement": "effect on membrane potential", "setting": "[3]; 5 μM", "result": "small hyperpolarization"}, {"measurement": "effect on membrane potential", "setting": "[3]; 2 and 5 μM", "result": "did not depolarize membrane potential"}, {"measurement": "intestinal fluid accumulation (ratio of intestinal weight before vs. after luminal fluid removal)", "setting": "[4]", "result": "remarkably reduced intestinal fluid accumulation"}, {"measurement": "reduction of short-circuit current", "setting": "CFTR Cl^− channel", "result": "> 80", "unit": "%"}, {"measurement": "block of Cl^−/HCO3^− exchanger (AE1)", "setting": "[5]", "result": "did not block"}, {"measurement": "inhibition of CFTR activation by other agonists", "setting": "wildtype CFTR; 5 μM inhibitor, genistein, CPT-cAMP, CPX, 8-MPO, UCCF-029, UCCF-853 (all 50 μM)", "result": "effectively inhibited"}, {"measurement": "t1/2 of inhibition", "setting": "wildtype CFTR; after addition of 2 μM", "result": 4, "unit": "min"}, {"measurement": "time to complete inhibition", "setting": "wildtype CFTR; after addition of 2 μM", "result": "~10", "unit": "min"}, {"measurement": "t1/2 of inhibition reversal after washout", "setting": "wildtype CFTR; washout of 1 μM", "result": "~5", "unit": "min"}, {"measurement": "rate of fluid absorption", "setting": "[6]", "result": "did not alter the rate of fluid absorption"}, {"measurement": "effect on phosphatase activity", "setting": "phosphatase activity", "result": "did not affect"}, {"measurement": "block of urea transporter (UT-B)", "setting": "urea transporter (UT-B)", "result": "did not block"}, {"measurement": "block of volume-activated Cl^− currents", "setting": "[7]", "result": "did not block"}]}
